Test results from patent US6281344A, “Nucleic acid-protein fusion molecules and libraries” (priority 1999, dated 2001).

What was measured:
[1] = tested on: ribosome (eukaryotic peptidyl transferase / translocation) in reticulocyte lysate translation extract; test: RNA-peptide fusion formation (35S Met template labeling) with the long myc template in reticulocyte lysate translation extract, effect of inhibitors; format: biochemical, rabbit; settings: long myc template (LP154), inhibitor concentration not given, 60 min
Description: To confirm that the template labeling by ^35 S Met was a consequence of translation, and more specifically resulted from the peptidyl transferase activity of the ribosome, the effect of various inhibitors on the labeling reaction was examined. The specific inhibitors of eukaryotic peptidyl transferase, anisomycin, gougerotin, and sparsomycin (Vazquez, Inhibitors of Protein Biosynthesis (Springer-Verlag, N.Y.), pp. 312 (1979)), as well as the translocation inhibitors cycloheximide and emetine (Vazquez, Inhibitors of Protein Biosynthesis (Springer-Verlag, N.Y.), pp. 312 (1979)) all decreased RNA-peptide fusion formation by ~95% using the long myc template and a reticulocyte lysate translation extract.
Reticulocyte Translation Reactions. Translation reactions were performed either with purchased kits (Novagen, Madison, Wis.) or using extract prepared according to published protocols (Jackson and Hunt, Meth. Enzymol. 96:50 (1983)). Reticulocyte-rich blood was obtained from Pel-Freez Biologicals (Rogers, […].). In both cases, the reaction conditions were those recommended for use with Red Nova Lysate (Novagen). Reactions consisted of 100 mM KCl, 0.5 mM MgOAc, 2 mM DTT, 20 mM HEPES pH 7.6, 8 mM creatine phosphate, 25 µM in each amino acid (with the exception of methionine if ^35 S Met was used), and 40% v/v of lysate. Incubation was at 30° C. for 1 hour. Template concentrations depended on the experiment but generally ranged from 50 nM to 1 μM with the exception of 43-P (FIG. 6H) which was 4 μM.

ribosome A site = settings: binding the A site, accepting the growing peptide chain, and falling off the ribosome; cited from earlier work

COc1ccc(C[C@H]2NC[C@H](O)[C@H]2OC(C)=O)cc1 [anisomycin]
decrease of RNA-peptide fusion formation [1]: ~ 95%

C[C@@H]1C[C@@H]([C@H](O)CC2CC(=O)NC(=O)C2)C(=O)[C@@H](C)C1 [cycloheximide]
decrease of RNA-peptide fusion formation [1]: ~ 95%

CC[C@H]1CN2CCc3cc(OC)c(OC)cc3[C@@H]2C[C@@H]1C[C@H]1NCCc2cc(OC)c(OC)cc21 [emetine]
decrease of RNA-peptide fusion formation [1]: ~ 95%

CNCC(=O)NC(CO)C(=O)NC1C(C(N)=O)OC(n2ccc(N)nc2=O)C(O)C1O (stereo not drawn) [gougerotin]
decrease of RNA-peptide fusion formation [1]: ~ 95%

COc1ccc(C[C@H](N)C(=O)N[C@H]2[C@@H](O)[C@H](n3cnc4c(N(C)C)ncnc43)O[C@@H]2CO)cc1 [puromycin]
Kd (ribosome A site): 100 µM

CSC[S@+]([O-])C[C@H](CO)NC(=O)/C=C/c1c(C)[nH]c(=O)[nH]c1=O [sparsomycin]
decrease of RNA-peptide fusion formation [1]: ~ 95%
